From patent publication US12144910B2, “Methods of coating antimicrobial peptides on the biomaterial and the biomaterial coated thereby” (priority 2019, dated 2024)
Values after ≈ are worked out from the molar mass of the structure shown. Like-named read-outs stand apart in the source and are kept apart here. Non-standard residues stand in square brackets, D forms with d. No end group written: not given here.

Experiments:
S. aureus [1] = system: S. aureus
Procedure: (§2) Minimum inhibitory concentration (MIC) and minimum bactericidal concentration (MBC). […] The suspended AMPs were then loaded into wells of 96-well microplates and incubated at 37° C. overnight with gentle agitation at 100 rpm. The absorbance was measured by SpectraMax 190 microplate reader at 600 nm. The remaining cfu in the mixture was counted after plating on agar plate. Minimum inhibitory concentration (MIC) was defined as the lowest AMP concentration to keep the solution with the same absorbance as that of culture medium without bacteria. […] Alternatively, the MIC of coated AMPs was also determined. […] The free form AMPs as well as surfactant were dissolved in 200 μl sterile media (cell culture medium or human urine) and used as a control for quantitation. The potency of antimicrobial activity was expressed as the dilution folds to reach the MIC, in which no bacteria grow in the medium. At least three independent experiments were performed to determine the value.

mouse red blood cells = experiment: Hemolytic assay; settings: dilution fold; free form, 1× = 8 μg AMP, 16 μg PXB and/or 25 μg SDS in 200 μl
Procedure: The blood cells were pelleted and rinsed three times with 10% FBS in RPMI1640, and re-suspended in the same buffer. The erythrocytes (1.5×10^7 cells) were then added to the solution containing free dual AMP/surfactant or overnight released components from silicone discs in 200 μl and incubation at 37° C. for one hr. The supernatants (150 μl) after centrifugation were transferred to 96-well plate for the measurement of the absorbance of released hemoglobin by SpectraMax 190 microplate reader (Molecular Devices, CA, USA) at 414 nm. Percent hemolysis was calculated using the following formula: % hemolysis=[(A414sample−A414medium)/(A4140.1% Triton-X 100−A414medium)]. Zero and 100% hemolysis were determined in medium and 0.1% Triton-X 100, respectively.

E. coli ATCC 23502 = experiment: Potency of antimicrobial activity as dilution folds to reach the MIC; assay type: cell-based; settings: for Potency (x) MIC to E. coli, Serum / Potency (x) MIC to E. coli, Urine: dilution fold, free form, 1× = 8 μg AMP; for Potency (x) MIC to E. coli, Serum: 16 μg PXB and/or 25 μg SDS in 200 μl serum; for Potency (x) MIC to E. coli, Urine: 16 μg PXB and/or 25 μg SDS in 200 μl urine
Procedure: Minimum inhibitory concentration (MIC) and minimum bactericidal concentration (MBC). […] Alternatively, the MIC of coated AMPs was also determined. […] The urine and serum were changed daily. Two μl of the incubation urine or serum being replaced (containing released/free SAAP159+PXB) or its dilutions were dotted onto the top layer of the microbe-containing agar plates and incubated at 37° C. overnight, following which the assessment of formation of growth inhibition zone was carried out. Defined amounts of mixed antimicrobials were used as a standard for the quantitation of the released antimicrobials. The amount of antimicrobial mixture which was able to form visible inhibition zone on the agar plate is defined as one unit of antimicrobial activity. […] The absorbance at 600 nm was then determined by SpectraMax 190 microplate reader. Minimal inhibitory concentration (MIC), which is defined as the concentration of (diluted) sample serum or urine which is able to keep the absorbance of the bacteria-containing media no different to that of media only, was determined. The potency of antimicrobial activity, which is defined as the dilution fold of antimicrobial-containing urine or serum that achieves MIC, was also determined.

[2] = system: Human bladder carcinoma cell line (NTUB1); experiment: Cytotoxicity assay (WST-1); settings: for Potency (x) Cytotoxicity to NTUB1 IC50: dilution fold, free form, 1× = 8 μg AMP, 16 μg PXB and/or 25 μg SDS in 200 μl
Procedure: NTUB1 cells were maintained at 37° C. in a humidified incubator under 5% CO2 atmosphere in RPMI1640 containing 10% FBS, 100 U/ml penicillin and 100 μg/ml streptomycin. The NTUB1 cells were seeded in the respective wells of a 96-well plate at a density of 1.5×10^4 cells/1000 for 24 hr. The cells were further incubated in 2000 free antimicrobial/surfactant or components released from silicone disc after overnight incubation. After 20 hr incubation, 900 of fresh culture medium and 100 of WST-1 agent (Roche, Basel, Switzerland) were added to the drained wells and incubated for two 2 hr before measuring the absorbance by SpectraMax 190 microplate reader at 450 nm. Percent of cytotoxicity was determined using the following formula: % cytotoxicity=[(A450sample−A450positive control)/(A450negative control−A450positive control)]. Positive control was NTUB1 cells only, whereas negative control was medium without cells.

[3] = assay type: physicochemical; design: time stable in human urine: unit not given here; settings: for time stable in human urine: coated onto the microplate by SDS, examined under the microscope; for stability in urine: one-day incubation; for time stable in 10% FBS: single AMP coated by SDBS on polystyrene; for time stable in urine: single AMP coated by SDS (two-step) on polystyrene, SDS-PAGE
S. aureus [4] = experiment: Inhibition zone assay on agar plate; assay type: cell-based, Staphylococcus aureus; settings: free AMP, 2 μl dotted on agar plate
Procedure: (§1) Inhibition zone. Bacteria were cultured in Luria-Bertani broth and plated on Luria-Bertani agar for E. coli (ATCC 23502) and Pseudomonas aeruginosa (ATCC 27853) at 37° C. Staphylococcus aureus (ATCC 6538P) was cultured and plated in/on tryptic soy broth/agar. Candida albicans (ATCC 14053) were cultured in/on YM broth/agar at 30° C. Five ml of low melting agar (1%) mixed with 100 μl of overnight-cultured bacteria was spread on top of 1% regular agar plate. Two μl of antimicrobial peptides at various concentrations were dotted on the top layer of microbe-containing agar plates and incubated overnight for the development of inhibition zone.

P. aeruginosa 27853 = experiment: Inhibition zone assay on agar plate; assay type: cell-based, Pseudomonas aeruginosa; settings: free AMP, 2 μl dotted on agar plate
Procedure: as §1

[5] = free AMP, LB, 3.5 × 10^5 cfu/ml

Procedure for E. coli 23502: as §2

CC[C@H](C)[C@H](NC(=O)[C@H](CCCNC(=N)N)NC(=O)[C@H](CCCNC(=N)N)NC(=O)[C@H](CC(C)C)NC(=O)[C@H](Cc1c[nH]c2ccccc12)NC(=O)[C@H](C)NC(=O)[C@H](CCCCN)NC(=O)[C@@H](NC(=O)[C@H](CCCNC(=N)N)NC(=O)[C@H](CCCNC(=N)N)NC(=O)[C@H](CC(C)C)NC(=O)[C@@H](N)Cc1c[nH]c2ccccc12)[C@@H](C)CC)C(=O)N[C@@H](CCCCN)C(=O)N[C@@H](C)C(=O)O [RRIKA]
MBC (S. aureus [1]): 128 µg/mL (≈ 68.6 µM) | MIC (S. aureus [1]): 64 µg/mL (≈ 34.3 µM) | MBC (E. coli 23502; 23502): 128 µg/mL (≈ 68.6 µM) | MIC (E. coli 23502; 23502): 128 µg/mL (≈ 68.6 µM)

CCCCCCCCCCCCOS(=O)(=O)[O-].[Na+] [SDS, sodium dodecyl sulfate]
Potency (x) Hemolysis of RBC HC50 (mouse red blood cells): 1-2 x | Potency (x) MIC to E. coli, Serum (E. coli ATCC 23502): <1 x | Potency (x) MIC to E. coli, Urine (E. coli ATCC 23502): <1 x | bactericidal activity against E. coli 23502 in urine or in 10% FBS (E. coli ATCC 23502; surfactant alone up to maximal amount (14 μg SDS, 25 μg SDBS) in 200 μl): did not exert bactericidal activity | cytotoxicity toward NTUB1 cells ([2]; 25 μg in 200 μl): 99% | Potency (x) Cytotoxicity to NTUB1 IC50 [2]: 1-2 x | cytotoxicity toward NTUB1 cells ([2]; half of the total amount (of 25 μg in 200 μl)): 35% | cytotoxicity toward human bladder cells (NTUB1) (in words) ([2]; maximal amount that may be coated and released (SDS 14 μg; AMP pairs 12 μg each) in 200 μl): low cytotoxicity

GRFKRFRKKFKKLFKKLSPVIPLLHLG-OH (All in D form) (G[dR][dF][dK][dR][dF][dR][dK][dK][dF][dK][dK][dL][dF][dK][dK][dL][dS][dP][dV][dI][dP][dL][dL][dH][dL]G-OH) [D-BMAP27]
time stable in human urine [3]: at least three

H-FIHHIIGGLFSAGKAIHRLIRRRRR-OH [TP4, antimicrobial peptide Piscidins 4]
stability in urine ([3]; coated by SDBS on microplates): stable in urine | stability in urine ([3]; coated by SOS or SDSn on microplates): not those coated by SOS or SDSn | time stable in human urine [3]: at least three

Polymyxin B [PXB, reference compound]
Potency (x) Hemolysis of RBC HC50 (mouse red blood cells): <1 x | Potency (x) MIC to E. coli, Serum (E. coli ATCC 23502): 512 x | Potency (x) MIC to E. coli, Urine (E. coli ATCC 23502): 128 x | Potency (x) Cytotoxicity to NTUB1 IC50 [2]: <1 x

H-RRLIRLILRLLR-NH2 [RR12]
antimicrobial activity by inhibition zone (in words) (S. aureus [4]): very active | MBC (S. aureus [1]): 4 µg/mL | MIC (S. aureus [1]): 4 µg/mL | MBC (E. coli 23502; 23502): 4 µg/mL | MIC (E. coli 23502; 23502): 4 µg/mL | time stable in 10% FBS [3]: two

LKRLYKRVFRLLKRYYRQLRRPVR-OH [SAAP159]
MBC (S. aureus [1]): >512 µg/mL | MIC (S. aureus [1]): 512 µg/mL | MBC (E. coli 23502; 23502): 64 µg/mL | MIC (E. coli 23502; 23502): 64 µg/mL | time stable in human urine [3]: at least three | time stable in urine [3]: 12 days

H-FIHHIIGGLFSAGKAIHRLIRRRRR-OH [TP4-A12,15I]
time stable in 10% FBS [3]: two

GRFKRFRKKFKKLFKKLSPVIPLLHLG (G[dR][dF][dK][dR][dF][dR][dK][dK][dF][dK][dK][dL][dF][dK][dK][dL][dS][dP][dV][dI][dP][dL][dL][dH][dL]G) [L-BMAP27]
time stable in human urine [3]: at least three

RGLRRLGRKIVHVVKKYLPTVLRIIRIA-NH2 [SMAP28-3]
time stable in human urine [3]: at least three

KWKLFKKIGIGAVLKVLKKG-NH2 [T18,19K]
MBC (S. aureus [1]; free AMP, TSB, 4 × 10^5 cfu/ml): >512 µg/mL | MIC (S. aureus [1]; free AMP, TSB, 4 × 10^5 cfu/ml): >512 µg/mL | MBC (E. coli 23502; [5]): 64 µg/mL | MIC (E. coli 23502; [5]): 64 µg/mL | time stable in urine [3]: 6 days | time stable in serum ([3]; single AMP coated by SDS on polystyrene): not stable

RGLRRLGRKIVHVVKKYLPTVLRIIRRL-NH2 [SMAP28-3 + 2]
MBC (S. aureus [1]): 32 µg/mL | MIC (S. aureus [1]): 32 µg/mL | MBC (E. coli 23502; 23502): 8 µg/mL | MIC (E. coli 23502; 23502): 4 µg/mL | time stable in human urine [3]: at least three | time stable in 10% FBS [3]: one

RFRRLRKKWRKRLKKI-NH2 [T9W]
MBC (S. aureus [1]): >512 µg/mL | MIC (S. aureus [1]): >512 µg/mL | MBC (E. coli 23502; 23502): >512 µg/mL | MIC (E. coli 23502; 23502): >512 µg/mL | antimicrobial activity by inhibition zone (in words) (P. aeruginosa 27853): preferentially killed | time stable in urine [3]: 6 days
